Measurements published in the NIST ThermoML archive (doi:10.1016/j.fluid.2017.06.018).
“And” between values parts separate entries of the source, which are not always exact repeats. Equal entries are not always repeated. ± gives the expanded uncertainty stated by the source.

Key:
[1] = refractive index (Na D-line) (dimensionless); conditions: 100 kPa, Liquid, Standard Abbe refractometry
[2] = 100 kPa, Liquid; for viscosity: Falling or rolling sphere viscometry; for mass density: Vibrating tube method
[3] = refractive index (Na D-line) (dimensionless); xn = mol fraction of the nth substance listed; conditions: 100 kPa, Liquid, Standard Abbe refractometry, x1 = 1
[4] = xn = mol fraction of the nth substance listed; conditions: 100 kPa, Liquid, x1 = 1; for viscosity: Falling or rolling sphere viscometry; for mass density: Vibrating tube method

Structure (SMILES) | refractive index ([1]; 298.15 K) | refractive index ([1]; 303.15 K) | refractive index ([1]; 308.15 K) | viscosity ([2]; 298.15 K) [mPa·s] | mass density ([2]; 298.15 K) [kg/m3] | viscosity ([2]; 303.15 K) [mPa·s] | mass density ([2]; 303.15 K) [kg/m3] | viscosity ([2]; 308.15 K) | mass density ([2]; 308.15 K) [kg/m3] | refractive index ([3]; 298.15 K) | refractive index ([3]; 303.15 K) | refractive index ([3]; 308.15 K) | viscosity ([4]; 298.15 K) [mPa·s] | mass density ([4]; 298.15 K) [kg/m3] | viscosity ([4]; 303.15 K) [mPa·s] | mass density ([4]; 303.15 K) [kg/m3] | viscosity ([4]; 308.15 K) [mPa·s] | mass density ([4]; 308.15 K) [kg/m3]
NCCO [2-aminoethan-1-ol] + NCCNCCN |  |  |  |  |  |  |  |  |  | 1.4535 ± 0.0021 | 1.4519 ± 0.0021 | 1.4505 ± 0.0021 | 18.72 ± 0.44 | 1012.4 ± 2.2 | 15.15 ± 0.36 | 1008.4 ± 2.1 | 11.9 ± 0.28 | 1004.5 ± 2.1
NCCO [2-aminoethan-1-ol] | 1.4535 ± 0.0021 | 1.4519 ± 0.0021 | 1.4505 ± 0.0021 | 18.72 ± 0.44 | 1012.4 ± 2.2 | 15.15 ± 0.36 | 1008.4 ± 2.1 | 11.9 ± 0.28 mPa·s and 11.96 ± 0.28 mPa·s | 1004.5 ± 2.1 |  |  |  |  |  |  |  |  | 
NCCO [2-aminoethan-1-ol] + NCCNCCO |  |  |  |  |  |  |  |  |  | 1.4535 ± 0.0021 | 1.4519 ± 0.0021 | 1.4505 ± 0.0021 | 18.72 ± 0.44 | 1012.4 ± 2.2 | 15.15 ± 0.36 | 1008.4 ± 2.1 | 11.96 ± 0.28 | 1004.5 ± 2.1

Now from value to molecule:

refractive index ([1]; 298.15 K) | refractive index ([1]; 303.15 K) | refractive index ([1]; 308.15 K) | viscosity ([2]; 298.15 K) [mPa·s] | mass density ([2]; 298.15 K) [kg/m3] | viscosity ([2]; 303.15 K) [mPa·s] | mass density ([2]; 303.15 K) [kg/m3] | viscosity ([2]; 308.15 K) | mass density ([2]; 308.15 K) [kg/m3] | refractive index ([3]; 298.15 K) | refractive index ([3]; 303.15 K) | refractive index ([3]; 308.15 K) | viscosity ([4]; 298.15 K) [mPa·s] | mass density ([4]; 298.15 K) [kg/m3] | viscosity ([4]; 303.15 K) [mPa·s] | mass density ([4]; 303.15 K) [kg/m3] | viscosity ([4]; 308.15 K) [mPa·s] | mass density ([4]; 308.15 K) [kg/m3] | Structure (SMILES)
1.4822 ± 0.0021 | 1.4808 ± 0.0021 | 1.4793 ± 0.0021 | 5.63 ± 0.13 | 945.8 ± 2.1 | 4.5 ± 0.11 | 942.1 ± 2.1 | 3.85 ± 0.09 mPa·s | 937.8 ± 2.1 |  |  |  |  |  |  |  |  |  | NCCNCCN [di(2-aminoethyl)amine]
1.4843 ± 0.002 | 1.4827 ± 0.002 | 1.4811 ± 0.002 | 98.62 ± 2.9 | 1025.8 ± 2 | 70.57 ± 1.6 | 1021.3 ± 2 | 53.11 ± 1.1 mPa·s | 1016.3 ± 2 |  |  |  |  |  |  |  |  |  | NCCNCCO [N-(2-aminoethyl)ethanolamine]
